According to patent US20260007758A1, “SO[…]-2 RECEPTOR (SST2R) NON-PEPTIDE DRUG CONJUGATES AND USES THEREOF” (Crinetics Pharmaceuticals, Inc., priority 2024, published 2026):

Experiments:
Type in all cases: cell-based
[1] = system: NCI-H524 human small cell lung cancer cells; test: H524 assay: inhibition of cell proliferation (CellTiter Glo); details: 2 h treatment, washout, additional 70 h incubation
How it was run: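 NCI-H524 cells were exposed for 2 h to NDC in an 11-point two-fold series starting at 1 uM. The drug was then washed out and cells grew a further 70 h. CellTiter Glo luminescence gave % inhibition versus untreated control, and IC50 came from a four-parameter nonlinear regression.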

[2] = biological target: T1, human somatostatin receptor subtype 2 (Homo sapiens, UniProt P30874); test: Functional assay for SSTR2 agonists (HTRF cAMP); details: CHO-K1 cells stably expressing human SST2; NKH477-stimulated cAMP; 20 min at 37 C; read-out: hSST2 cAMP Avg EC50
T1 construct: expressed in transfected cells
T1 sequence (P30874 whole entry): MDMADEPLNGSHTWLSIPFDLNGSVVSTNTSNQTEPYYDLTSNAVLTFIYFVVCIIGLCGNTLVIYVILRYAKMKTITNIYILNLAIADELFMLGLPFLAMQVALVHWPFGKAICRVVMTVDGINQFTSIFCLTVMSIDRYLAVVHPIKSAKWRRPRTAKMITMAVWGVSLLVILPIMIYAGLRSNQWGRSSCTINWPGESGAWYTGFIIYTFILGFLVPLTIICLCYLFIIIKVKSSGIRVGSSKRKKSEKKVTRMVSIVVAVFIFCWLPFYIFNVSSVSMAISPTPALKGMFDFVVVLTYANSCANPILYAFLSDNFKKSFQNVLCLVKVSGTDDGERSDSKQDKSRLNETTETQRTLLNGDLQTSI
How it was run: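 CHO-K1 cells stably expressing human SSTR2 treated with compound (typically 0-10,000 nM final) for 20 min at 37 °C. Lysate cAMP measured by HTRF (665/620 nm ratio), converted via standard curve; EC50 from cAMP vs concentration.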

SST2 = biological target: T2, SST2 (Homo sapiens, UniProt P30874); test: PathHunter CHO-K1 SST2 Internalization Assay; details: PathHunter CHO-K1 SST2 cells; 90 min at 37 C; luminescence; read-out: Internalization EC50
T2 construct: host or cells: PathHunter CHO-K1 SST2 cells
T2 sequence (P30874 whole entry): as above
How it was run: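 CHO-K1 cells expressing human SST2, 2500 cells/well, grown 48 h, then exposed 90 min at 37 C to 11-point 1:3 NDC dilutions (final top 10 uM). Beta-Glo luminescence after 60 min at room temperature; four-parameter IC50, duplicate mean, background-corrected.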

Row | SMILES | EC50 [1] | EC50 [2] | EC50 (SST2)
1 | CC[C@H](C)[C@@H]([C@@H](CC(=O)N1CCC[C@H]1[C@H](OC)[C@@H](C)C(=O)N[C@H](C)[C@@H](O)c1ccccc1)OC)N(C)C(=O)[C@@H](NC(=O)[C@H](C(C)C)N(C)C(=O)OCc1ccc(NC(=O)[C@H](CCCNC(N)=O)NC(=O)[C@@H](NC(=O)C[C@@H](N)C(=O)NCCOCCC(=O)NCCNc2ncc(-c3cc(C)cc(F)c3)c(N3CCC(N)CC3)c2-c2nc3ccc(Cl)cc3[nH]2)C(C)C)c(O[C@@H](C)C(=O)O)c1)C(C)C [Compound 200] | 23 nM | 0.18 nM | 3.9 nM
2 | CC[C@H](C)[C@@H]([C@@H](CC(=O)N1CCCC1[C@H](OC)[C@@H](C)C(=O)N[C@H](C)[C@@H](O)c1ccccc1)OC)N(C)C(=O)[C@@H](NC(=O)[C@H](C(C)C)N(C)C(=O)OCc1ccc(NC(=O)[C@H](CCCNC(N)=O)NC(=O)[C@@H](NC(=O)[C@H](Cc2c[nH]cn2)NC(=O)CCOCCC(=O)NCCNc2ncc(-c3cc(C)cc(F)c3)c(N3CCC(N)CC3)c2-c2nc3ccc(Cl)cc3[nH]2)C(C)C)c(OCC(=O)O)c1)C(C)C (stereo partly drawn) [Compound 202] | 14 nM | 0.14 nM | 4.6 nM
3 | CC[C@H](C)[C@@H]([C@@H](CC(=O)N1CCC[C@H]1[C@H](OC)[C@@H](C)C(=O)N[C@H](C)[C@@H](O)c1ccccc1)OC)N(C)C(=O)[C@@H](NC(=O)[C@H](C(C)C)N(C)C(=O)OCc1ccc(NC(=O)[C@H](CCCNC(N)=O)NC(=O)[C@@H](NC(=O)[C@@H](NC(=O)CCOCCC(=O)NCCNc2ncc(-c3cc(C)cc(F)c3)c(N3CCC(N)CC3)c2-c2nc3ccc(Cl)cc3[nH]2)c2cnn(C)c2)C(C)C)c(OCC(=O)O)c1)C(C)C [Compound 203] | 71 nM | 0.11 nM | 7.7 nM
4 | CC[C@H](C)[C@@H]([C@@H](CC(=O)N1CCC[C@H]1[C@H](OC)[C@@H](C)C(=O)N[C@H](C)[C@@H](O)c1ccccc1)OC)N(C)C(=O)[C@@H](NC(=O)[C@H](C(C)C)N(C)C(=O)OCc1ccc(NC(=O)[C@H](CCCNC(N)=O)NC(=O)[C@@H](NC(=O)[C@H](NC(=O)CCOCCC(=O)NCCNc2ncc(-c3cc(C)cc(F)c3)c(N3CCC(N)CC3)c2-c2nc3ccc(Cl)cc3[nH]2)c2cnn(C)c2)C(C)C)c(OCC(=O)O)c1)C(C)C [Compound 204] | 30 nM | 0.14 nM | 9.2 nM
5 | CC[C@H](C)[C@@H]([C@@H](CC(=O)N1CCC[C@H]1[C@H](OC)[C@@H](C)C(=O)N[C@H](C)[C@@H](O)c1ccccc1)OC)N(C)C(=O)[C@@H](NC(=O)[C@H](C(C)C)N(C)C(=O)OCc1ccc(NC(=O)[C@H](CCCNC(N)=O)NC(=O)[C@@H](NC(=O)C[C@@H](N)C(=O)NCCOCCC(=O)NCCNc2ncc(-c3cc(C)cc(F)c3)c(N3CCC(N)CC3)c2-c2nc3ccc(Cl)cc3[nH]2)C(C)C)c(CCC(=O)O)c1)C(C)C [Compound 205] | 37 nM | 0.086 nM | 5.2 nM
6 | CC[C@H](C)[C@@H]([C@@H](CC(=O)N1CCC[C@H]1[C@H](OC)[C@@H](C)C(=O)N[C@H](C)[C@@H](O)c1ccccc1)OC)N(C)C(=O)[C@@H](NC(=O)[C@H](C(C)C)N(C)C(=O)OCc1ccc(NC(=O)[C@H](C)NC(=O)[C@@H](NC(=O)CCOCCC(=O)N(C)CC(=O)NCCNc2ncc(-c3cc(C)cc(F)c3)c(N3CCC(N)CC3)c2-c2nc3ccc(Cl)cc3[nH]2)C(C)C)c(O[C@@H]2O[C@H](C(=O)NCCO)[C@@H](O)[C@H](O)[C@H]2O)c1)C(C)C [Compound 206] | 14 nM | 0.12 nM | 4.5 nM
7 | CC[C@H](C)[C@@H]([C@@H](CC(=O)N1CCC[C@H]1[C@H](OC)[C@@H](C)C(=O)N[C@H](C)[C@@H](O)c1ccccc1)OC)N(C)C(=O)[C@@H](NC(=O)[C@H](C(C)C)N(C)C(=O)OCc1ccc(NC(=O)[C@H](CCCNC(N)=O)NC(=O)[C@@H](NC(=O)CCOCCC(=O)N(C)CC(=O)NCCNc2ncc(-c3cc(C)cc(F)c3)c(N3CCC(N)CC3)c2-c2nc3ccc(Cl)cc3[nH]2)C(C)C)c(O[C@@H]2O[C@H](C(=O)NCCO)[C@@H](O)[C@H](O)[C@H]2O)c1)C(C)C [Compound 207] | 8.4 nM | 0.23 nM | 5.9 nM
8 | CC[C@H](C)[C@@H]([C@@H](CC(=O)N1CCC[C@H]1[C@H](OC)[C@@H](C)C(=O)N[C@H](C)[C@@H](O)c1ccccc1)OC)N(C)C(=O)[C@@H](NC(=O)[C@H](C(C)C)N(C)C(=O)OCc1ccc(NC(=O)[C@H](CCCNC(N)=O)NC(=O)[C@@H](NC(=O)CCOCCC(=O)NCCNc2ncc(-c3cc(C)cc(F)c3)c(N3CCC(N)CC3)c2-c2nc3ccc(Cl)cc3[nH]2)C(C)C)c(O[C@@H]2O[C@H](C(=O)NCCS(=O)(=O)O)[C@@H](O)[C@H](O)[C@H]2O)c1)C(C)C [Compound 208] | 8.9 nM | 0.062 nM | 3.1 nM
9 | CC[C@H](C)[C@@H]([C@@H](CC(=O)N1CCC[C@H]1[C@H](OC)[C@@H](C)C(=O)N[C@H](C)[C@@H](O)c1ccccc1)OC)N(C)C(=O)[C@@H](NC(=O)[C@H](C(C)C)N(C)C(=O)OCc1ccc(NC(=O)[C@H](CCCNC(N)=O)NC(=O)[C@@H](NC(=O)CCCC(=O)N(C)CC(=O)NCCNc2ncc(-c3cc(C)cc(F)c3)c(N3CCC(N)CC3)c2-c2nc3ccc(Cl)cc3[nH]2)C(C)C)c(O[C@@H]2O[C@H](C(=O)NCCN)[C@@H](O)[C@H](O)[C@H]2O)c1)C(C)C [Compound 209] | 1.5 nM | 0.11 nM | 2.7 nM
10 | CC[C@H](C)[C@@H]([C@@H](CC(=O)N1CCC[C@H]1[C@H](OC)[C@@H](C)C(=O)N[C@H](C)[C@@H](O)c1ccccc1)OC)N(C)C(=O)[C@@H](NC(=O)[C@H](C(C)C)N(C)C(=O)OCc1ccc(NC(=O)[C@H](CCCNC(N)=O)NC(=O)C2(NC(=O)CCOCCC(=O)NCCNc3ncc(-c4cc(C)cc(F)c4)c(N4CCC(N)CC4)c3-c3nc4ccc(Cl)cc4[nH]3)CCC2)c(O[C@H]2O[C@H](C(=O)NCC(=O)O)[C@@H](O)[C@H](O)[C@H]2O)c1)C(C)C [Compound 210] | 2300 nM | 0.051 nM | 2.8 nM
11 | CC[C@H](C)[C@@H]([C@@H](CC(=O)N1CCC[C@H]1[C@H](OC)[C@@H](C)C(=O)N[C@H](C)[C@@H](O)c1ccccc1)OC)N(C)C(=O)[C@@H](NC(=O)[C@H](C(C)C)N(C)C(=O)OCc1ccc(NC(=O)[C@H](CCCNC(N)=O)NC(=O)[C@@H](NC(=O)C[C@@H](N)C(=O)NCCOCCC(=O)NCCNc2ncc(-c3cc(C)cc(F)c3)c(N3CCC(N)CC3)c2-c2nc3ccc(Cl)cc3[nH]2)C(C)C)c(O[C@@H]2O[C@H](C(=O)N[C@@H](CCCCNC(=O)CCCCc3ccc(I)cc3)C(=O)O)[C@@H](O)[C@H](O)[C@H]2O)c1)C(C)C [Compound 211] | 89 nM | 0.19 nM | 3.2 nM
12 | CC[C@H](C)[C@@H]([C@@H](CC(=O)N1CCC[C@H]1[C@H](OC)[C@@H](C)C(=O)N[C@H](C)[C@@H](O)c1ccccc1)OC)N(C)C(=O)[C@@H](NC(=O)[C@H](C(C)C)N(C)C(=O)OCc1ccc(NC(=O)[C@H](CCCNC(N)=O)NC(=O)[C@@H](NC(=O)[C@H](Cc2c[nH]cn2)NC(=O)CCOCCC(=O)NCCNc2ncc(-c3cc(C)cc(F)c3)c(N3CCC(N)CC3)c2-c2nc3ccc(Cl)cc3[nH]2)C(C)C)c(O[C@@H]2C[C@H](C(=O)NCC(=O)O)[C@@H](O)[C@H](O)[C@H]2O)c1)C(C)C [Compound 212] | 20 nM | 0.088 nM | 4.5 nM
13 | CC[C@H](C)[C@@H]([C@@H](CC(=O)N1CCC[C@H]1[C@H](OC)[C@@H](C)C(=O)N[C@H](C)[C@@H](O)c1ccccc1)OC)N(C)C(=O)[C@@H](NC(=O)[C@H](C(C)C)N(C)C(=O)OCc1ccc(NC(=O)[C@H](CCCNC(N)=O)NC(=O)[C@@H](NC(=O)[C@H](CCCO)NC(=O)CCOCCC(=O)NCCNc2ncc(-c3cc(C)cc(F)c3)c(N3CCC(N)CC3)c2-c2nc3cc(Cl)ccc3[nH]2)C(C)C)c(O[C@@H]2O[C@H](C(=O)NCC(=O)O)[C@@H](O)[C@H](O)[C@H]2O)c1)C(C)C [Compound 213] | 9.2 nM | 0.089 nM | 3.4 nM
14 | CC[C@H](C)[C@@H]([C@@H](CC(=O)N1CCC[C@H]1[C@H](OC)[C@@H](C)C(=O)N[C@H](C)[C@@H](O)c1ccccc1)OC)N(C)C(=O)[C@@H](NC(=O)[C@H](C(C)C)N(C)C(=O)OCc1ccc(NC(=O)[C@H](CCCNC(N)=O)NC(=O)[C@@H](NS(=O)(=O)C[C@H](C)NC(=O)CCOCCC(=O)NCCNc2ncc(-c3cc(C)cc(F)c3)c(N3CCC(N)CC3)c2-c2nc3ccc(Cl)cc3[nH]2)C(C)C)c(O[C@@H]2O[C@H](C(=O)NCC(=O)O)[C@@H](O)[C@H](O)[C@H]2O)c1)C(C)C [Compound 214] | 8.9 nM | 0.11 nM | 4 nM
15 | CC[C@H](C)[C@@H]([C@@H](CC(=O)N1CCC[C@H]1[C@H](OC)[C@@H](C)C(=O)N[C@H](C)[C@@H](O)c1ccccc1)OC)N(C)C(=O)[C@@H](NC(=O)[C@H](C(C)C)N(C)C(=O)OCc1ccc(NC(=O)[C@H](CCCNC(N)=O)NC(=O)[C@@H](NC(=O)CCOCCC(=O)N(C)CC(=O)NCCNc2ncc(-c3cc(C)cc(F)c3)c(N3CCC(N)CC3)c2-c2nc3ccc(Cl)cc3[nH]2)C(C)C)c(O[C@@H]2O[C@H](C(=O)NCCN(C)C)[C@@H](O)[C@H](O)[C@H]2O)c1)C(C)C [Compound 215] | 5 nM | 0.14 nM | 7.8 nM
